# Literature values as cited in PubChem BioAssay AID1259409 (Chemical Carcinogenesis Research Information System (CCRIS), 2018).
# System: rodent chemically induced tumor inhibition, incidence and multiplicity
# Experiment: CCRIS tumor inhibitor studies
# Details: for tumour outcome (control, treated, inhibition, significance): Promoter: NONE USED
structure (smiles),measurement,setting,value
CC(C)NCC(O)c1ccc(O)c(O)c1 (stereo not given),"tumour outcome (control, treated, inhibition, significance)","Carcinogen: 1,2-DIMETHYLHYDRAZINE DIHYDROCHLORIDE, 306-37-6, Dose [Inhibitor]: 0, 150 MG/KG BW 1/WK FOR 8 WK BEGINNING 20 D POST CARCINOGEN TREATMENT (STUDY DURATION: 26.5 WK), Route [Inhibitor]: INTRAPERITONEAL, Species: MOUSE, Strain/Sex: CF-1/FEMALE, Target Tissue: Type of Lesion: COLON: TUMOR, Dose [Carcinogen]: 20 MG/KG BW 1/WK FOR 8 WK","10/12 (83%), 10/12 (83%), 0%, not significant"
same,"tumour outcome (control, treated, inhibition, significance)","Carcinogen: 1,2-DIMETHYLHYDRAZINE DIHYDROCHLORIDE, 306-37-6, Dose [Inhibitor]: 0, 150 MG/KG BW 1/WK FOR 12 WK ADMINISTERED 39 HR POST EACH CARCINOGEN DOSE (STUDY DURATION: 28 WK), Route [Inhibitor]: INTRAPERITONEAL, Species: MOUSE, Strain/Sex: CF-1/FEMALE, Target Tissue: Type of Lesion: COLON: TUMOR, Dose [Carcinogen]: 20 MG/KG BW 1/WK FOR 12 WK","12/12 (100%), 9/9 (100%), 0%, not significant"
same,"tumour outcome (control, treated, inhibition, significance)","Carcinogen: 1,2-DIMETHYLHYDRAZINE DIHYDROCHLORIDE, 306-37-6, Dose [Inhibitor]: 0, 150 MG/KG BW 2/WK FOR 6 WK ADMINISTERED 15 AND 39 HR AFTER EACH CARCINOGEN DOSE (STUDY DURATION: 30 WK), Route [Inhibitor]: INTRAPERITONEAL, Species: MOUSE, Strain/Sex: CF-1/FEMALE, Target Tissue: Type of Lesion: COLON: TUMOR, Dose [Carcinogen]: 20 MG/KG BW 1/WK FOR 6 WK","4/9 (44%), 0/8 (0%), 100%, not calculated"
same,"tumour outcome (control, treated, inhibition, significance)","Carcinogen: 1,2-DIMETHYLHYDRAZINE DIHYDROCHLORIDE, 306-37-6, Dose [Inhibitor]: 0, 150 MG/KG BW 2/WK FOR 12 WK ADMINISTERED 15 AND 39 HR POST EACH CARCINOGEN DOSE (STUDY DURATION: 28 WK), Route [Inhibitor]: INTRAPERITONEAL, Species: MOUSE, Strain/Sex: CF-1/FEMALE, Target Tissue: Type of Lesion: COLON: TUMOR, Dose [Carcinogen]: 20 MG/KB BW 1/WK FOR 12 WK","12/12 (100%), 8/8 (100%), 0%, not significant"
same,"tumour outcome (control, treated, inhibition, significance)","Carcinogen: AZOXYMETHANE, 25843-45-2, Dose [Inhibitor]: 0.5 MG/KG BW 1/2D IN OLIVE OIL BEGINNING 3 WK PRIOR TO FIRST CARCINOGEN DOSE (STUDY DURATION: 40 WK), Route [Inhibitor]: SUBCUTANEOUS, Species: RAT, Strain/Sex: WISTAR/MALE, Target Tissue: Type of Lesion: COLON: TUMOR, Dose [Carcinogen]: 7.4 MG/KG BW IN 0.9% SALINE SOLUTION 1/WK FOR 10 WK","18/20 (90%), 10/18 (56%), 38%, p<0.05"
same,"tumour outcome (control, treated, inhibition, significance)","Carcinogen: N-METHYL-N'-NITRO-N-NITROSOGUANIDINE, 70-25-7, Dose [Inhibitor]: 0, 0.1 MG/KG IN OLIVE OIL SUSPENSION 1/D BEGINNING 1 WK POST LAST CARCINOGEN DOSE AND CONTINUING FOR DURATION OF STUDY (, Species: RAT, Strain/Sex: WISTAR/MALE, Target Tissue: Type of Lesion: GLANDULAR STOMACH: ADENOCARCINOMA, Dose [Carcinogen]: 50 UG/ML IN DRINKING WATER FOR 25 WK","15/18 (83%), 9/20 (45%), 46%, p<0.05"
C[Se]C[C@H](N)C(=O)O,"tumour outcome (control, treated, inhibition, significance)","Carcinogen: 7,12-DIMETHYLBENZ[A]ANTHRACENE, 57-97-6, Dose [Inhibitor]: 0, 0.000025 MOL/KG DIET BEGINNING 1 WK POST CARCINOGEN AND CONTINUED FOR STUDY DURATION (STUDY DURATION: 25 WK), Route [Inhibitor]: ORAL, Species: RAT, Strain/Sex: CD-1/FEMALE, Target Tissue: Type of Lesion: MAMMARY GLAND: ADENOCARCINOMA, Dose [Carcinogen]: 10 MG ONCE","25/30 (83%), 15/30 (50%), 40%, p<0.05"
same,"tumour outcome (control, treated, inhibition, significance)","Carcinogen: 7,12-DIMETHYLBENZ[A]ANTHRACENE, 57-97-6, Dose [Inhibitor]: 0, 0.000025 MOL/KG DIET BEGINNING 2 WK PRIOR TO CARCINOGEN AND CONTINUED 1 WK POST CARCINOGEN (STUDY DURATION: 25 WK), Route [Inhibitor]: ORAL, Species: RAT, Strain/Sex: CD-1/FEMALE, Target Tissue: Type of Lesion: MAMMARY GLAND: ADENOCARCINOMA, Dose [Carcinogen]: 10 MG ONCE","25/30 (83%), 17/30 (57%), 31%, p<0.05"
same,"tumour outcome (control, treated, inhibition, significance)","Carcinogen: 7,12-DIMETHYLBENZ[A]ANTHRACENE, 57-97-6, Dose [Inhibitor]: 0, 0.000025 MOL/KG DIET BEGINNING 2 WK PRIOR TO CARCINOGEN AND CONTINUED FOR STUDY DURATION (STUDY DURATION: 25 WK), Route [Inhibitor]: ORAL, Species: RAT, Strain/Sex: CD-1/FEMALE, Target Tissue: Type of Lesion: MAMMARY GLAND: ADENOCARCINOMA, Dose [Carcinogen]: 10 MG ONCE","22/25 (88%), 10/25 (40%), 55%, p<0.05"
S=C=NCc1cc2ccccc2c2ccccc12,outcome,"Carcinogen: BENZO[A]PYRENE, 50-32-8, Dose [Inhibitor]: 0, 5 UMOL IN ACETONE 4 HR PRIOR TO CARCINOGEN DOSE (STUDY DURATION: 20 WK), Route [Inhibitor]: DERMAL, Species: MOUSE, Strain/Sex: STRAIN-A/FEMALE, Target Tissue: Type of Lesion: SKIN: TUMOR, Dose [Carcinogen]: 0.1 UMOL IN ACETONE ONCE, Promoter: 12-O-TETRADECANOYLPHORBOL-13-ACETATE, 16561-29-8","85%, 95%, -12%, not significant at 15 wk; 95%, 95%, 0%, not significant at 20 wk"
